In assay [1] the target is T1, PDZ2 domain of human tyrosine phosphatase 1E (hPTP1E) (Homo sapiens, UniProt Q12923).
T1 construct: the constructs used for the PDZ2 domain of human tyrosine phosphatase 1E; polyhistidine (N); made in house; host or cells: Escherichia coli BL21 (DE3)
T1 sequence (Q12923 1368-1452 limits assumed): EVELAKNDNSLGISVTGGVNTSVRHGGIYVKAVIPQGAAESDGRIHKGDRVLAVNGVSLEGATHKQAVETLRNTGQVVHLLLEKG
Nature of the assay: 2D [1H,15N]-HSQC chemical shift perturbation titration. Type of assay: binding. Conditions: 30 μM 15N PDZ2, pH 6.8, 298 K. The method, then: We compared the affinities of the peptides obtained via CIDNP-KD with the state-of-the-art 2D [^1H, ^15N]-HSQC titration experiments measured with 30 μM PDZ2 (Figure S3).
Expression and purification were carried out as in previously reported procedures. In short, expression in Escherichia coli cells (BL21 (DE3)) and purification via Ni-NTA chromatography as the constructs used for the PDZ2 domain of human tyrosine phosphatase 1E and human PIN1 both contained N-terminal polyhistidine tags. Both protein constructs were measured in an NMR buffer consisting of 50 mM NaCl, 20 mM KPO4, and 10% D2O at pH 6.8. For the control [^1H, ^15N]-HSQC experiments, the PDZ2 domain was expressed in ^15N-enriched minimal medium.[34],[43]
All photo-CIDNP and STD-NMR experiments were recorded at 298 K on a Bruker Avance III HD 600 MHz spectrometer equipped with a cryoprobe. The [^15N, ^1H] – HSQC titration experiments of the PDZ2 domain were performed also at 298 K on another Bruker Avance IIII HD 600 MHz spectrometer equipped with a cryoprobe and SampleJet.
Peak picking was performed with the maximal peak picking tool of Mnova software. Plotting, fitting, and data analysis was done in RStudio with the workflow described above. The [^15N, ^1H]-HSQC reference affinities were analyzed with CCPNMR3.1.[62] The backbone assignment was taken from BMRB 34688.
Fig. S3: 2D [15N, 1H]-HSQC titration of peptides to hPDZ2 domain. The 2D [ 15N, 1H]-
HSQC spectra of the titration series in presence of 30 µM hPDZ2 domain and the
corresponding observed chemical shift difference of A74 plotted versus the peptide
(1 picture or pasted object on this page, not shown here)

Assay [2] addresses T1, PDZ2 domain of human tyrosine phosphatase 1E (hPTP1E). Put plainly: CIDNP-KD ligand titration (photo-CIDNP hyperpolarized NMR). Type of assay: binding. The text has this: For both STD-NMR and CIDNP-KD, there is an initial buildup of the signal at the start of the irradiation. However, the mechanisms underlying it and, thus, the kinetics of the signal buildup are different between the techniques. In STD-NMR, the saturation of L starts to build up as soon as the irradiation of the protein begins because preformed PL complexes can be immediately saturated. However, in CIDNP-KD, the preformed PL complexes are not CIDNP-active. Therefore, a free L must first be hyperpolarized and then bind to P before any signal reduction is observable. Therefore, we will use the AF(ti) corresponding to the steady state in contrast to STD-NMR, where one needs to measure the initial growth of the amplification factor to account for the ligand rebinding effects, which are significant at low ligand-to-protein ratios;[7] there is no need for an initial amplification factor in CIDNP-KD. During the photo-CIDNP process, only 0.1–1% of the ligand becomes hyperpolarized such that even at low ligand-to-protein ratios, the rebinding of L* is not a significant factor. Therefore, one needs to only assess the time to reach a steady-state amplification factor AFss, whose value is measured at a series of ligand concentrations, and then fit eq 5 to determine the proportionality factor α and the dissociation constant KD (Figure 1D,E) [drawing 5] 5 Affinities are obtained with the CIDNP-KD method as follows. The ligand of interest and the photosensitizer are prepared as titration series in the presence and absence of the target protein (Figure 1A) and measured with the Cryolight setup (Figure 1B,[23]), which allows the automatization with an autosampler. The photo-CIDNP signal builds up within 2 s (Figure 1C). It allows us to measure the irradiation time-dependent photo-CIDNP buildup of the ligand NMR signal in the presence and absence of protein in under a minute per sample (Figure S1A). These signal intensities are converted into AF(ti) with eq 4 (Figure S1B), giving an individual titration data point in the corresponding ligand titration curve (Figure S1C). The experiment is repeated at different ligand concentrations to build the titration curve fitted using eq 5, yielding the KD (Figure 1E,F). The entire measurement of all the photo-CIDNP spectra of 7 titration points (14 measurements) takes about 7 min in measurement time, plus the time to exchange the samples with the autosampler (Figure 1D).
Figure 2 presents the CIDNP-KD titration curves for each peptide with 20 μM PDZ2 in (A) and 10 μM PDZ2 in (B to D). The curves were obtained using the workflow described in the introduction for each proton of tryptophan that has sufficient photo-CIDNP signal enhancement and signal reduction upon binding (Figure S2).
Figure 2 Affinity determination of different peptides binding to the hPDZ2 domain by CIDNP-KD within a few minutes. Ligand titration of (A) WSAV, (B) WVSAV, (C) WQVSAV, and (D) WEQVSAV against the human tyrosine phosphatase PDZ2 domain (20 μM for WSAV, 10 μM for others) as described in Figures 1 and S1. The plots contain the titration curves for all protons of the tryptophan residue that undergo signal enhancement through photo-CIDNP and display sufficient quenching upon protein binding. The individual data points are measured with single-scan experiments with laser irradiation durations where t > tss: (A) 1500 ms, (B) 2000 ms, (C) 2000 ms, and (D) 2000 ms.
Expression and purification were carried out as in previously reported procedures. In short, expression in Escherichia coli cells (BL21 (DE3)) and purification via Ni-NTA chromatography as the constructs used for the PDZ2 domain of human tyrosine phosphatase 1E and human PIN1 both contained N-terminal polyhistidine tags. Both protein constructs were measured in an NMR buffer consisting of 50 mM NaCl, 20 mM KPO4, and 10% D2O at pH 6.8. For the control [^1H, ^15N]-HSQC experiments, the PDZ2 domain was expressed in ^15N-enriched minimal medium.[34],[43] […]

In assay [3] the target is T2, ENEQVSAV (RA-GEF2) (Homo sapiens).
T2 chain: ENEQVSAV
Put plainly: competition CIDNP-KD NMR (Hβ).

The target of assay [4] is T3, QVSAV (RA-GEF2) (Homo sapiens).
T3 chain: QVSAV
Nature of the assay: competition CIDNP-KD NMR (Hβ).

The target in assay [5] is T4, WQVSAV.
T4 chain: WQVSAV
Nature of the assay: [1H,15N]-HSQC titration (A74).

The target of assay [6] is T2, ENEQVSAV (RA-GEF2). Nature of the assay: [1H,15N]-HSQC titration (A74).
The target of assay [7] is T5, WVSAV.
T5 chain: WVSAV
Put plainly: [1H,15N]-HSQC titration (A74).

For assay [8], the target named is T3, QVSAV (RA-GEF2). Put plainly: [1H,15N]-HSQC titration (A74).
In assay [9] the target is T6, WEQVSAV.
T6 chain: WEQVSAV
Nature of the assay: [1H,15N]-HSQC titration (A74).

The target of assay [10] is T2, ENEQVSAV (RA-GEF2). Nature of the assay: competition CIDNP-KD NMR (H4).
Assay [11] deals with T6, WEQVSAV. Nature of the assay: CIDNP-KD NMR (H6).
The target in assay [12] is T4, WQVSAV. Nature of the assay: CIDNP-KD NMR (Hβ).
The target in assay [13] is T5, WVSAV. Nature of the assay: CIDNP-KD NMR (Hβ).
Assay [14] deals with T6, WEQVSAV. Nature of the assay: CIDNP-KD NMR (Hβ).
The target in assay [15] is T4, WQVSAV. Put plainly: CIDNP-KD NMR (H2).
Assay [16] concerns the target T5, WVSAV. Nature of the assay: CIDNP-KD NMR (H2).
In assay [17] the target is T6, WEQVSAV. Nature of the assay: CIDNP-KD NMR (H2).
The target of assay [18] is T4, WQVSAV. Nature of the assay: CIDNP-KD NMR (H4).
The target of assay [19] is T5, WVSAV. Nature of the assay: CIDNP-KD NMR (H4).
Where [20] appears, read: 15N–1H moiety of A74, read-out: [1H,15N]-HSQC–CSP KD, NH of A74.
The mark [21] stands for this setting: range over residues, read-out: [1H,15N]-HSQC–CSP KD range of all residues showing chemical shift perturbation.
The mark [22] stands for this setting: range over Hβ/H2/H4/H6 fits, read-out: CIDNP-KD affinity, range over the observed tryptophan protons.
Where [23] appears, read: tryptophan H2 signal, 20 μM PDZ2 for WSAV, 10 μM for others, pH 6.8, 298 K, H2 overlaps H6 for WVSAV and WQVSAV, read-out: CIDNP-KD, H2.
Setting [24] is: tryptophan H4 signal, 20 μM PDZ2 for WSAV, 10 μM for others, pH 6.8, 298 K, read-out: CIDNP-KD, H4.
[25] abbreviates: tryptophan H6 signal, 20 μM PDZ2 for WSAV, 10 μM for others, pH 6.8, 298 K, read-out: CIDNP-KD, H6.
Setting [26] is: tryptophan Hβ signal, 20 μM PDZ2 for WSAV, 10 μM for others, 25 μM fluorescein, 450 nm, 50 mM NaCl, 20 mM KPO4, 10% D2O, pH 6.8, 298 K, single-scan, steady state, fit ± error, read-out: CIDNP-KD, Hβ.

Residues, ends and D or L forms follow the SMILES beside them.

As to `CC(C)[C@H](NC(=O)[C@H](C)NC(=O)[C@H](CO)NC(=O)[C@@H](NC(=O)[C@H](CCC(N)=O)NC(=O)[C@H](CCC(=O)O)NC(=O)[C@@H](N)Cc1c[nH]c2ccccc12)C(C)C)C(=O)O` [WEQVSAV] (H-WEQVSAV-OH), the Kd in assay [1] (setting [20]) is 16 ± 5 µM; in assay [1] (setting [21]), 10 to 70 µM; in assay [2] (setting [22]), 55 to 82 µM; in assay [2] (setting [23]) it was 63 ± 28 µM; in assay [2] (setting [24]), 63 ± 16 µM; in assay [2] (setting [25]), 55 ± 17 µM. In [2] (setting [26]), the Kd was determined as 82 ± 33 µM.

Regarding `CC(C)[C@H](NC(=O)[C@H](C)NC(=O)[C@H](CO)NC(=O)[C@@H](NC(=O)[C@H](CCC(N)=O)NC(=O)[C@@H](N)Cc1c[nH]c2ccccc12)C(C)C)C(=O)O` [WQVSAV] (H-WQVSAV-OH), the Kd in assay [1] (setting [20]) is 68 ± 11 µM; in assay [1] (setting [21]), 20 to 280 µM; in [2] (setting [22]), 19 to 200 µM; in assay [2] (setting [23]), 74 ± 14 µM; in [2] (setting [24]) it was 230 ± 30 µM; in [2] (setting [26]), 27 ± 16 µM.

In the case of `CC(C)[C@H](NC(=O)[C@H](C)NC(=O)[C@H](CO)NC(=O)[C@@H](N)Cc1c[nH]c2ccccc12)C(=O)O` [WSAV] (H-WSAV-OH), the Kd was 1320 ± 160 µM in assay [1] (setting [20]); 200 to 4000 µM in assay [1] (setting [21]); 3100 to 3300 µM in assay [2] (setting [22]); 3300 ± 2300 µM in [2] (setting [23]); 3100 ± 1500 µM in assay [2] (setting [24]); 3100 ± 3200 µM in assay [2] (setting [25]).

For the molecule `CC(C)[C@H](NC(=O)[C@H](C)NC(=O)[C@H](CO)NC(=O)[C@@H](NC(=O)[C@@H](N)Cc1c[nH]c2ccccc12)C(C)C)C(=O)O` [WVSAV] (H-WVSAV-OH), the Kd in assay [1] (setting [20]) is 108 ± 10 µM; in [1] (setting [21]), 50 to 400 µM; in assay [2] (setting [22]), 80 to 330 µM; in assay [2] (setting [23]) it was 80 ± 60 µM; in [2] (setting [24]), 330 ± 80 µM; in [2] (setting [26]) it was 170 ± 40 µM.

B1: PDZ2 domain of human tyrosine phosphatase 1E (hPTP1E) PDZ2 (protein)
chain: DIFEVELAKNDNSLGISVTGGVNTSVRHGGIYVKAVIPQGAAESDGRIHKGDRVLAVNGVSLEGATHKQAVETLRNTGQVVHLLLEKGQSP
With B1, the Kd amounted to 35 µM with ENEQVSAV (RA-GEF2) [3]; 580 µM with QVSAV (RA-GEF2) [4]; 68 µM with WQVSAV [5]; 17 µM in the assay with ENEQVSAV (RA-GEF2) [6]; 108 µM in the assay with WVSAV [7]; 155 µM in the assay with QVSAV (RA-GEF2) [8]. Moreover, the Kd in the assay with WEQVSAV [9] came out at 16 µM; with ENEQVSAV (RA-GEF2) [10], 91 µM; with WEQVSAV [11] it was 55 µM; with WQVSAV [12], 27 µM; in the assay with WVSAV [13] it was 170 µM; with WEQVSAV [14], 82 µM. Further, the Kd in the assay with WQVSAV [15] is 74 µM; with WVSAV [16] it was 80 µM; with WEQVSAV [17], 63 µM; in the assay with WQVSAV [18], 230 µM; with WVSAV [19], 330 µM.

These data come from paper PMC11228983, “Rapid Protein–Ligand Affinity Determination by Photoinduced Hyperpolarized NMR” (Journal of the American Chemical Society, 2024).
